Measurements reported in US6211170A, “Azetidinone derivatives for the treatment of HCMV infections” (Boehringer Ingelheim (Canada) Ltd., priority 1998, dated 2001).

Legend:
[1] = Cytotoxicity, tetrazolium salt (MTT) metabolic assay; type: cell-based; settings: cytotoxic effects, read-out: TC50 (the source's name)
Method: Cytotoxic effects noted as TC50 in the following tables were determined according to the tetrazolium salt (MTT) metabolic assay, F. Denizot and F. Lang, J. Immun. Meth., 1986, 89, 271.

[2] = biological target: T1, HCMV NO protease (Human cytomegalovirus, UniProt P16753); test: HCMV NO Protease Assay (fluorogenic substrate cleavage); type: biochemical; settings: HCMV NO protease 100 nM, substrate 5 μM, pH 8, 2.5 h at 30°
T1 construct: HCMV NO protease
T1 sequence (P16753 1-256): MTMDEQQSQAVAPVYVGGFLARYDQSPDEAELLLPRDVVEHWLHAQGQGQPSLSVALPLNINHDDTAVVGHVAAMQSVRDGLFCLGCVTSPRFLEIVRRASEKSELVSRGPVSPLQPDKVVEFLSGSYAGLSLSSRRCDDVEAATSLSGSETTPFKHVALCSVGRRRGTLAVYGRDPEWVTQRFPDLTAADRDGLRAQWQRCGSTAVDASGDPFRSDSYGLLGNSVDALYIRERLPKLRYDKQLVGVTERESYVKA
Method: This particular assay determines the ability of a test compound to inhibit the activity (IC50) of HCMV protease. More specifically, in the assay described herein, the inhibitory activity of the test compound is evaluated on the basis of its ability to interfere with the HCMV NO protease cleavage of a fluorogenic peptide substrate which in turn is based on the maturation cleavage site of the enzyme.
1. HCMV NO Protease Assay
Material & Methods: Fluorescence measurements were recorded on a Perkin-Elmer LS-50B spectrofluorimeter equipped with a plate reader accessory. UV measurements were recorded on a Thermomax® microplate reader from Molecular Devices Corporation, Menlo Park, Calif., USA.
HCMV NO protease was assayed with an internally quenched fluorogenic substrate based on the maturation cleavage site (Abz-[…](3-NO2)R--OH, kcat /KM =260 M^-1 s^-1). The fluorescence increase upon cleavage of the Ala-Ser amide bond was monitored using excitation λ=312 nm (slit 2.5 nm) and emission λ=415 nm (slit 5 nm). A protocol adaptable to a 96-well plate format was designed for the determination of IC50 values of inhibitors.
After this period, enzymatic hydrolysis of the fluorogenic substrate in the absence of inhibitor led to about a 30% conversion. Quenching was not required before fluorescence measurement since the total scanning time by the plate reader accessory was brief relative to the duration of the reaction. The aqueous incubation buffer contained 50 mM tris(hydroxymethyl)aminomethane.HCl pH 8, 0.5M Na2 SO4, 50 mM NaCl, 0.1 mM EDTA, 1 mM tris(2-carboxyethyl)phosphine.HCl, 3% v/v DMSO and 0.05% w/v casein. The final concentrations of HCMV NO protease (expressed in terms of total monomer concentration) and substrate were 100 nM and 5 μM respectively. IC50 values were obtained through fitting of the inhibition curve to a competitive inhibition model using SAS NLIN procedure. The mode of inhibition was determined by measurements of the initial rates (in cuvettes) at various substrate concentrations in the buffer as described above. The IC50 values listed in the following tables were obtained according to this assay.

[3] = test system: HCMV (strain AD169, ATCC VR-538); test: Plaque Reduction Assay (PRA) in HCMV-infected Hs-68 cells; type: cell-based, human cytomegalovirus (HCMV); settings: Human betaherpesvirus 5, Hs68, 192 h; plaque reduction, HCMV strain AD169, Hs-68 cells, 8 days; read-out: EC50
Method: B. Plaque Reduction Assay (PRA):
Hs-68 cells (ATCC # CRL 1635) were seeded in 12-well plates at 83,000 cells/well in 1 mL of DMEM medium (Gibco Canada Inc.) supplemented with 10% fetal bovine serum (FBS, Gibco Canada Inc.). The plates were incubated for 3 days at 37° to allow the cells to reach 80-90% confluency prior to the assay.
The medium was removed from the cells by aspiration. The cells were then infected with approximately 50 PFU of HCMV (strain AD169, ATCC VR-538) in DMEM medium supplemented with 5% inactivated FBS (assay medium). (DMEM medium is commercially available and has been described by R. Dulbecco et al., Virology 1959, 8, 396.) The virus was allowed to adsorb to cells for 2 h at 37°. Following viral adsorption, the medium was removed from the wells by aspiration. The cells were then incubated with or without 1 mL of appropriate concentrations of test reagent in assay medium. Occasionally, test compounds were added 24 h post-infection. After 4 days of incubation at 37°, the medium was exchanged with fresh medium containing test compound and 4 days later the cells were fixed with 1% aqueous formaldehyde and stained with a 2% violet solution in 20% ethanol in water. Microscopic plaques were counted using a stereomicroscope. Drug effects were calculated as a percent reduction in the number of plaques in the presence of each drug concentration compared to the number observed in the absence of drug. Ganciclovir was used as a positive control in all experiments.

Row | Structure (SMILES) | CC50 [1] [µM] | IC50 [2] [µM] | EC50 [3] [µM]
1 | CC[C@@H](NC(=O)N1C(=O)C[C@@H]1COc1ccccn1)c1ccccc1 [Entry 101] | 151 | 8.4 | 55
2 | CC[C@@H](NC(=O)N1C(=O)[C@@H](C)[C@@H]1COc1ccccc1)c1ccccc1 [Entry 102] | > 250 | 2.7 | > 250
3 | CC[C@@H](NC(=O)N1C(=O)C[C@@H]1CSc1ccccn1)c1ccccc1 [Entry 103] | > 250 | 4 | 150
4 | CC[C@@H](NC(=O)N1C(=O)C[C@@H]1CSc1ncccn1)c1ccccc1 [Entry 104, 2-oxo-4(R)-(pyrimidin-2-ylsulfanylmethyl)azetidine-1-carboxylic acid (1(R)-phenylpropyl)amide] | > 209 | 2.8 | 120
5 | CC[C@@H](NC(=O)N1C(=O)C[C@@H]1CSc1nc(C)cc(C)n1)c1ccccc1 [Entry 105] | > 250 | 4.6 | 88
6 | CC[C@@H](NC(=O)N1C(=O)C[C@@H]1CSc1nc2ccccc2s1)c1ccccc1 [Entry 106] | > 250 | 3.3 | > 250
7 | CC[C@@H](NC(=O)N1C(=O)C[C@@H]1CSc1ccncc1)c1ccccc1 [Entry 107] | > 233 | 2 | 92
8 | CC[C@@H](NC(=O)N1C(=O)[C@@H](C)[C@@H]1CSc1ccccn1)c1ccccc1 [Entry 108] | > 250 | 1.2 | 180
9 | CC[C@@H](NC(=O)N1C(=O)[C@@H](C)[C@@H]1CSc1nc2ccccc2s1)c1ccccc1 [Entry 109] | > 250 | 1.2 | 160
10 | CC[C@@H](NC(=O)N1C(=O)[C@@H](C)[C@@H]1CSC(C)C)c1ccccc1 [Entry 110] |  | 5.6 | 
11 | CC[C@@H](NC(=O)N1C(=O)[C@@H](C)[C@@H]1CSc1ncccn1)c1ccccc1 [Entry 111] | > 250 | 0.65 | 110
12 | CC[C@@H](NC(=O)N1C(=O)[C@@H](C)[C@@H]1CSc1nc2ccccc2o1)c1ccccc1 [Entry 112] | > 250 | 0.94 | 140
13 | CC[C@@H](NC(=O)N1C(=O)[C@@H](C)[C@@H]1CSc1ccccc1)c1ccccc1 [Entry 113] |  | 1.6 | 
14 | CC[C@@H](NC(=O)N1C(=O)[C@@H](C)[C@@H]1CSC1CCCCC1)c1ccccc1 [Entry 114] | > 250 | 3 | > 250
15 | CC[C@@H](NC(=O)N1C(=O)[C@@H](C)[C@@H]1CSc1ccoc1C)c1ccccc1 [Entry 115] | > 250 | 4.2 | 85
16 | CC[C@@H](NC(=O)N1C(=O)[C@@H](C)[C@@H]1CSc1nccn1C)c1ccccc1 [Entry 116] | > 250 | 1.9 | 130
17 | CC[C@@H](NC(=O)N1C(=O)[C@@H](C)[C@@H]1CSCC(C)C)c1ccccc1 [Entry 117] | > 250 | 3.5 | 110
18 | CC[C@@H](NC(=O)N1C(=O)[C@@H](C)[C@@H]1CSc1ccncc1)c1ccccc1 [Entry 118] | 199 | 1.6 | 55
19 | CC[C@@H](NC(=O)N1C(=O)[C@@H](C)[C@@H]1CSc1nnnn1C)c1ccccc1 [Entry 119] | > 250 | 1.4 | 80
20 | CCSC[C@H]1[C@H](C)C(=O)N1C(=O)N[C@H](CC)c1ccccc1 [Entry 120] |  | 4 | 
21 | CC[C@@H](NC(=O)N1C(=O)[C@@H](C)[C@@H]1CSC1CCCC1)c1ccccc1 [Entry 121] | > 250 | 4.3 | 150
22 | CC[C@@H](NC(=O)N1C(=O)[C@@H](C)[C@@H]1CSc1ccc(OC)cc1)c1ccccc1 [Entry 122] | > 250 | 4.8 | > 250

Row | Structure (SMILES) | CC50 [1] [µM] | IC50 [2] [µM] | EC50 [3] [µM]
23 | CC[C@@H](NC(=O)N1C(=O)[C@@H](C)[C@@H]1CSc1nccc(C)n1)c1ccccc1 [Entry 123] | > 250 | 0.98 | 150
24 | CC[C@@H](NC(=O)N1C(=O)C[C@@H]1CSc1nccc(C)n1)c1ccccc1 [Entry 124] | > 250 | 4 | > 250
25 | CC[C@@H](NC(=O)N1C(=O)[C@@H](C)[C@@H]1CSc1nc2ncccc2s1)c1ccccc1 [Entry 125] | > 250 | 1.1 | 140
26 | CC[C@@H](NC(=O)N1C(=O)[C@@H](C)[C@@H]1CSc1nc(C)cc(C)n1)c1ccccc1 [Entry 126] | > 63 | 2.8 | 25
27 | CC[C@@H](NC(=O)N1C(=O)C[C@@H]1CSC)c1ccccc1 [Entry 127, 4(R)-(methylsulfanyl)methyl-2-oxoazetidine-1-carboxylic acid (1(R)-phenylpropyl)amide] | > 250 | 3.8 | > 250
28 | CC[C@@H](NC(=O)N1C(=O)C[C@@H]1COc1cccc(CCC(=O)O)c1)c1ccccc1 [Entry 135] |  | 0.1 | 
29 | CC[C@@H](NC(=O)N1C(=O)C[C@@H]1COc1cccc(CC(=O)O)c1)c1ccccc1 [Entry 136] |  | 0.1 | 
30 | O=C1C[C@H](C[S+]([O-])c2ccccc2)N1C(=O)NCc1ccccc1 (stereo partly drawn) [Entry 202, 4(R) -benzenesulfinylmethyl-2-oxoazetidine-1-carboxylic acid benzylamide] |  | 13 | 
31 | O=C1C[C@H](CS(=O)(=O)c2ccccc2)N1C(=O)NCc1ccccc1 [Entry 203, 2(R)-benzenesulfonylmethyl-4-oxoazetidine-1-carboxylic acid benzyl amide] |  | 24 | 
32 | CC[C@@H](NC(=O)N1C(=O)C[C@@H]1CN1CCOCC1)c1ccccc1 [Entry 205] |  | 9.4 | 
33 | CC(=O)OC[C@H]1CC(=O)N1C(=O)NCc1ccncc1 [Entry 207] |  | 46 | 
34 | CC[C@@H](NC(=O)N1C(=O)C[C@@H]1CN(CC)CC)c1ccccc1 [Entry 210] |  | 48 | 
35 | Cn1nnnc1SC[C@H]1CC(=O)N1C(=O)NC1CCc2ccccc21 (some centres unmarked) [Entry 211] | 188 |  | 140
36 | CN(Cc1ccco1)C(=O)N1C(=O)C[C@@H]1CSc1ncccn1 [Entry 303] |  | 17 | 
37 | CN(C(=O)N1C(=O)C[C@@H]1CSc1ncccn1)c1ccccc1 [Entry 306] |  | 22 | 
38 | COC(=O)c1ccc(CN(C)C(=O)N2C(=O)C[C@@H]2CSc2nccn2C)cc1 [Entry 308] |  | 22 | 
39 | COC(=O)c1ccc(CN(C)C(=O)N2C(=O)C[C@@H]2CSc2nc3ccccc3o2)cc1 [Entry 310] |  | 3.3 | 
40 | CN(CC1CCCCO1)C(=O)N1C(=O)C[C@@H]1CSc1ncccn1 (some centres unmarked) [Entry 315] |  | 28 | 
41 | CN(Cc1ccc([N+](=O)[O-])cc1)C(=O)N1C(=O)C[C@@H]1CSc1ncccn1 [Entry 322] | > 118 |  | > 118
42 | O=C(OCc1ccccc1)C1CCCN1C(=O)N1C(=O)C[C@@H]1CSc1ncccn1 (some centres unmarked) [Entry 401] |  | 21 | 
43 | O=C1C[C@H](CSc2ncccn2)N1C(=O)N1CCC[C@H]1c1ccccc1 [Entry 402, 1-(2(S)-phenyl-pyrrolidine-1-carbonyl)-4-(pyrimidin-2-ylsulfanylmethyl)azetidin-2-one] |  | 34 | 
44 | Cn1nnnc1SC[C@H]1CC(=O)N1C(=O)N1CCCC1c1ccccc1[N+](=O)[O-] (some centres unmarked) [Entry 408] | > 133 |  | 100
